Results reported in the supplement of paper PMC10307832.

How the values were obtained:
Experiment in all cases: relative viability (nuclei count vs DMSO), 5 days (fraction); higher = more cells survive
NCI-H1793 = test system: NCI-H1793
In short: (§1)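 Each reported value is a median over duplicate plates. It expresses relative viability: treated-well nuclei count divided by vehicle-well nuclei count. Lung cancer cell lines in 1536-well plates were dosed by pin tool a day after seeding, alone with one drug or with a fixed anchor-drug dose plus five library-drug doses (not always all listed) in √10 steps, and nuclei were counted after 5 days.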

ChaGo-K-1 = test system: ChaGo-K-1
In short: as §1

NCI-H1395 = test system: NCI-H1395
In short: as §1

NCI-H1437 = test system: NCI-H1437
In short: as §1

NCI-H1944 = test system: NCI-H1944
In short: as §1

LCLC-97TM1 = test system: LCLC-97TM1
In short: as §1

NCI-H661 = test system: NCI-H661
In short: as §1

NCI-H2085 = test system: NCI-H2085
In short: as §1

HARA = test system: HARA
In short: as §1

NCI-H441 = test system: NCI-H441
In short: as §1

COR-L23 = test system: COR-L23
In short: as §1

NCI-H2087 = test system: NCI-H2087
In short: as §1

H3255 = test system: H3255
In short: as §1

NCI-H3122 = test system: NCI-H3122
In short: as §1

NCI-H1650 = test system: NCI-H1650
In short: as §1

NCI-H2126 = test system: NCI-H2126
In short: as §1

LXF-289 = test system: LXF-289
In short: as §1

HCC-78 = test system: HCC-78
In short: as §1

EPLC-272H = test system: EPLC-272H
In short: as §1

PC-14 = test system: PC-14
In short: as §1

HOP-62 = test system: HOP-62
In short: as §1

NCI-H1666 = test system: NCI-H1666
In short: as §1

## Cc1cn(-c2cc(NC(=O)c3ccc(C)c(Nc4nccc(-c5cccnc5)n4)c3)cc(C(F)(F)F)c2)cn1 [Nilotinib] + CC(=O)c1c(C)c2cnc(Nc3ccc(N4CCNCC4)cn3)nc2n(C2CCCC2)c1=O [Palbociclib] (partner 0.5 µM)
NCI-H1793; first compound 0.001 µM
  relative viability: 0.332
NCI-H1793; first compound 0.003162 µM
  relative viability: 0.352
NCI-H1793; first compound 0.01 µM
  relative viability: 0.307
NCI-H1793; first compound 0.03162 µM
  relative viability: 0.281
NCI-H1793; first compound 0.1 µM
  relative viability: 0.3
ChaGo-K-1; first compound 0.001 µM
  relative viability: 0.898
ChaGo-K-1; first compound 0.003162 µM
  relative viability: 1.25
ChaGo-K-1; first compound 0.01 µM
  relative viability: 1.06
ChaGo-K-1; first compound 0.03162 µM
  relative viability: 0.873
ChaGo-K-1; first compound 0.1 µM
  relative viability: 0.894
NCI-H1395; first compound 0.001 µM
  relative viability: 0.636
NCI-H1395; first compound 0.01 µM
  relative viability: 0.692
NCI-H1395; first compound 0.03162 µM
  relative viability: 0.612
NCI-H1395; first compound 0.1 µM
  relative viability: 0.599
NCI-H1437; first compound 0.001 µM
  relative viability: 0.28
NCI-H1437; first compound 0.003162 µM
  relative viability: 0.304
NCI-H1437; first compound 0.01 µM
  relative viability: 0.308
NCI-H1437; first compound 0.03162 µM
  relative viability: 0.276
NCI-H1437; first compound 0.1 µM
  relative viability: 0.32
NCI-H1944; first compound 0.001 µM
  relative viability: 0.279
NCI-H1944; first compound 0.003162 µM
  relative viability: 0.335
NCI-H1944; first compound 0.01 µM
  relative viability: 0.372
NCI-H1944; first compound 0.03162 µM
  relative viability: 0.365
NCI-H1944; first compound 0.1 µM
  relative viability: 0.378
LCLC-97TM1; first compound 0.001 µM
  relative viability: 0.222
LCLC-97TM1; first compound 0.003162 µM
  relative viability: 0.245
LCLC-97TM1; first compound 0.01 µM
  relative viability: 0.225
LCLC-97TM1; first compound 0.1 µM
  relative viability: 0.254
NCI-H661; first compound 0.001 µM
  relative viability: 0.438
NCI-H661; first compound 0.003162 µM
  relative viability: 0.396
NCI-H661; first compound 0.01 µM
  relative viability: 0.404
NCI-H661; first compound 0.03162 µM
  relative viability: 0.444
NCI-H661; first compound 0.1 µM
  relative viability: 0.361
NCI-H2085; first compound 0.001 µM
  relative viability: 0.525
NCI-H2085; first compound 0.003162 µM
  relative viability: 0.489
NCI-H2085; first compound 0.01 µM
  relative viability: 0.536
NCI-H2085; first compound 0.03162 µM
  relative viability: 0.498
NCI-H2085; first compound 0.1 µM
  relative viability: 0.393
HARA; first compound 0.001 µM
  relative viability: 0.287
HARA; first compound 0.003162 µM
  relative viability: 0.219
HARA; first compound 0.01 µM
  relative viability: 0.246
HARA; first compound 0.03162 µM
  relative viability: 0.251
HARA; first compound 0.1 µM
  relative viability: 0.225
NCI-H441; first compound 0.001 µM
  relative viability: 0.204
NCI-H441; first compound 0.003162 µM
  relative viability: 0.209
NCI-H441; first compound 0.01 µM
  relative viability: 0.197
NCI-H441; first compound 0.03162 µM
  relative viability: 0.201
NCI-H441; first compound 0.1 µM
  relative viability: 0.192
COR-L23; first compound 0.001 µM
  relative viability: 0.288
COR-L23; first compound 0.003162 µM
  relative viability: 0.301
COR-L23; first compound 0.01 µM
  relative viability: 0.317
COR-L23; first compound 0.03162 µM
  relative viability: 0.268
COR-L23; first compound 0.1 µM
  relative viability: 0.223
NCI-H2087; first compound 0.001 µM
  relative viability: 0.219
NCI-H2087; first compound 0.003162 µM
  relative viability: 0.204
NCI-H2087; first compound 0.01 µM
  relative viability: 0.213
NCI-H2087; first compound 0.03162 µM
  relative viability: 0.187
NCI-H2087; first compound 0.1 µM
  relative viability: 0.201
H3255; first compound 0.001 µM
  relative viability: 0.317
H3255; first compound 0.003162 µM
  relative viability: 0.286
H3255; first compound 0.01 µM
  relative viability: 0.313
H3255; first compound 0.03162 µM
  relative viability: 0.308
H3255; first compound 0.1 µM
  relative viability: 0.287
NCI-H3122; first compound 0.001 µM
  relative viability: 0.0877
NCI-H3122; first compound 0.003162 µM
  relative viability: 0.191
NCI-H3122; first compound 0.01 µM
  relative viability: 0.243
NCI-H3122; first compound 0.03162 µM
  relative viability: 0.198
NCI-H3122; first compound 0.1 µM
  relative viability: 0.175
NCI-H1650; first compound 0.001 µM
  relative viability: 0.329
NCI-H1650; first compound 0.003162 µM
  relative viability: 0.402
NCI-H1650; first compound 0.01 µM
  relative viability: 0.324
NCI-H1650; first compound 0.03162 µM
  relative viability: 0.309
NCI-H1650; first compound 0.1 µM
  relative viability: 0.298
NCI-H2126; first compound 0.001 µM
  relative viability: 0.337
NCI-H2126; first compound 0.003162 µM
  relative viability: 0.333
NCI-H2126; first compound 0.01 µM
  relative viability: 0.382
NCI-H2126; first compound 0.03162 µM
  relative viability: 0.321
NCI-H2126; first compound 0.1 µM
  relative viability: 0.346
LXF-289; first compound 0.001 µM
  relative viability: 0.673
LXF-289; first compound 0.003162 µM
  relative viability: 0.771
LXF-289; first compound 0.01 µM
  relative viability: 0.666
LXF-289; first compound 0.03162 µM
  relative viability: 0.607
LXF-289; first compound 0.1 µM
  relative viability: 0.577
HCC-78; first compound 0.001 µM
  relative viability: 0.476
HCC-78; first compound 0.003162 µM
  relative viability: 0.509
HCC-78; first compound 0.01 µM
  relative viability: 0.532
HCC-78; first compound 0.03162 µM
  relative viability: 0.468
HCC-78; first compound 0.1 µM
  relative viability: 0.524
EPLC-272H; first compound 0.001 µM
  relative viability: 0.348
EPLC-272H; first compound 0.003162 µM
  relative viability: 0.345
EPLC-272H; first compound 0.03162 µM
  relative viability: 0.291
EPLC-272H; first compound 0.1 µM
  relative viability: 0.39
PC-14; first compound 0.001 µM
  relative viability: 0.45
PC-14; first compound 0.003162 µM
  relative viability: 0.741
PC-14; first compound 0.01 µM
  relative viability: 0.666
PC-14; first compound 0.03162 µM
  relative viability: 0.426
PC-14; first compound 0.1 µM
  relative viability: 0.713
HOP-62; first compound 0.003162 µM
  relative viability: 0.425
HOP-62; first compound 0.01 µM
  relative viability: 0.439
NCI-H1666; first compound 0.001 µM
  relative viability: 0.62
NCI-H1666; first compound 0.003162 µM
  relative viability: 0.673
NCI-H1666; first compound 0.01 µM
  relative viability: 0.588
NCI-H1666; first compound 0.03162 µM
  relative viability: 0.583
NCI-H1666; first compound 0.1 µM
  relative viability: 0.65
